# Laboratory results taken from US20030166202A1, “P450 Monooxygenases of the cyp79 family” (priority 2000, published 2003).
# Like-named read-outs stand apart in the source and are kept apart here.
# T1: CYP79B2 (Arabidopsis thaliana, UniProt O81346)
# T1 sequence (O81346 1-541): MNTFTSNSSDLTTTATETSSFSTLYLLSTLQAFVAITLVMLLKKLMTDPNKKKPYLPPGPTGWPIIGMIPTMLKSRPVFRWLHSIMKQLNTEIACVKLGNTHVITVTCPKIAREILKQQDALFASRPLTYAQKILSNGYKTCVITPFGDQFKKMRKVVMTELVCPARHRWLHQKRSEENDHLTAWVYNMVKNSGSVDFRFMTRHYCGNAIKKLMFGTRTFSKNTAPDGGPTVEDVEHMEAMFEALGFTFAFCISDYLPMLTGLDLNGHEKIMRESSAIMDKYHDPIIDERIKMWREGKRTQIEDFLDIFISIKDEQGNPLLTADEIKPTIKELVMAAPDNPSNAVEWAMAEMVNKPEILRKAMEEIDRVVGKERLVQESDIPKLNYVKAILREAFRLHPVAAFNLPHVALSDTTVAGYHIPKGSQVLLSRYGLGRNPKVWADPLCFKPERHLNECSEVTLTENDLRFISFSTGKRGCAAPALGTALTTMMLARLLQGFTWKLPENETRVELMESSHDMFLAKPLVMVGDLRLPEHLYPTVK
# T2: CYP79A2 (Arabidopsis thaliana, UniProt Q9FLC8)
# T2 sequence (Q9FLC8 7-529 limits assumed): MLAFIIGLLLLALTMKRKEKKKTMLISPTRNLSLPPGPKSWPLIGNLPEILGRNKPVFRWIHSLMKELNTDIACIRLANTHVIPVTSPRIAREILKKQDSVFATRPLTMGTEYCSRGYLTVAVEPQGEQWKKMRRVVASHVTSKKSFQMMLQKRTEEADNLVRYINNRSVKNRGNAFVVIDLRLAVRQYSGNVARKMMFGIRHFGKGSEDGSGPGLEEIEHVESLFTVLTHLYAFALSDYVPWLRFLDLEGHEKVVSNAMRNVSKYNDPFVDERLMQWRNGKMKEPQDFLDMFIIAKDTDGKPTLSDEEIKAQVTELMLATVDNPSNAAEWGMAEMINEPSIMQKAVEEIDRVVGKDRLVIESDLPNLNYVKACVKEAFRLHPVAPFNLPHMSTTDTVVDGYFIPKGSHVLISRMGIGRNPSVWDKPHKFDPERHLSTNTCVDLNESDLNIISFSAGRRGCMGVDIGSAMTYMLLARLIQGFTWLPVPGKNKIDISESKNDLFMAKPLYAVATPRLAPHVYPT
# B1: CYP79A2 (Arabidopsis thaliana) (protein)
# chain: MLAFIIGLLLLALTMKRKEKKKTMLISPTRNLSLPPGPKSWPLIGNLPEILGRNKPVFRWIHSLMKELNTDIACIRLANTHVIPVTSPRIAREILKKQDSVFATRPLTMGTEYCSRGYLTVAVEPQGEQWKKMRRVVASHVTSKKSFQMMLQKRTEEADNLVRYINNRSVKNRGNAFVVIDLRLAVRQYSGNVARKMMFGIRHFGKGSEDGSGPGLEEIEHVESLFTVLTHLYAFALSDYVPWLRFLDLEGHEKVVSNAMRNVSKYNDPFVDERLMQWRNGKMKEPQDFLDMFIIAKDTDGKPTLSDEEIKAQVTELMLATVDNPSNAAEWGMAEMINEPSIMQKAVEEIDRVVGKDRLVIESDLPNLNYVKACVKEAFRLHPVAPFNLPHMSTTDTVVDGYFIPKGSHVLISRMGIGRNPSVWDKPHKFDPERHLSTNTCVDLNESDLNIISFSAGRRGCMGVDIGSAMTYMLLARLIQGFTWLPVPGKNKIDISESKNDLFMAKPLYAVATPRLAPHVYPT
# How the values were obtained:
# CYP79D2 = molecular target: T3, CYP79D2 (Manihot esculenta, UniProt Q9M7B7); assay type: biochemical, cassava
# T3 construct: made in house
# Description: Investigations into the substrate specificity of CYP79D1, CYP79D2, CYP79E1, CYP79E2, CYP79A2, CYP79B2, CYP79B5 and CYP79F1 are carried out in E. coli spheroplasts reconstituted with sorghum NADPH-cytochrome P450 oxidoreductase in the presence of high amounts of lipids. L-α-dioleyl phosphatidyl choline and L-α-dilauroyl phosphatidyl choline are preferred lipids for the reconstitution. […] Depending on the nature of the substrate, substrate specificity may also be determined using intact P. pastoris cells or intact E. coli cells.
# The ability of a P450 monooxygenase to convert an aliphatic or aromatic amino acid or chain-elongated methionine homologue to the corresponding oxime can be tested in an assay (see also example 5) comprising
# a) incubating a reaction mixture comprising the P450 monooxygenase of the present invention or spheroplasts of E.coli cells expressing said enzyme, the parent amino acid, NADPH, oxygen, NADPH-cytochrome P450 oxidoreductase and lipid at ambient temperature for a certain period of time which is between 2 min and 2 to 6 hours;
# b) terminating the reaction for example by the addition of a denaturing compounds such as ethyl acetate; and
# c) chemically identifying and quantifying the aldoxime produced.
# cassava microsomes = assay: Metabolism of amino acids by cassava microsomes; assay type: biochemical; conditions: amino acid as substrate
# CYP79D1 = CYP79D1 (Manihot esculenta, UniProt Q9M7B8); conditions: for inhibition of CYP79D1 val-oxime formation: reconstitution in presence of inhibitor
# Description: Isolated, recombinant CYP79D1 is reconstituted and its catalytic activity determined in vitro using reaction mixtures with a total volume of 30 μl containing 2.5 pmol CYP79D1, 0.05 U NADPH P450-oxidoreductase (Benveniste et al, Biochem J 235: 365-373, 1986), 10.6 mM L-α-dioleyl phosphatidylcholine, 0.35 μCi [U-^14C]-L-amino acid (L-Val, L-Ile, L-Leu, L-Tyr or L-Phe; Amersham, Sweden), 1 mM NADPH, 0.1 M NaCl and 20 mM KPi pH 7.9. In assays containing ^14C-L-valine or ^14C-L-isoleucine, different amounts of unlabeled L- and D-amino acids (0-6 mM) are added. After incubation for 10 minutes at 30° C. the products formed are extracted into 60 μl ethyl acetate and separated on TLC sheets (Merck Kieselgel 60F254) using n-pentane/diethyl ether (50:50, v/v) or toluene/ethyl acetate (5:1, v/v) as eluents for aliphatic compounds and aromatic compounds, respectively. ^14C-labeled oximes are visualized and quantified using a STORM 840 phosphor imager (Molecular Dynamics, CA, USA). The activity of CYP79D1 is additionally measured in the presence of the inhibitors tetcyclasis, ABT and DPI under the same conditions as described above. For in vivo activity assays 200 μl P. pastoris cells are pelleted and resuspended in 100 μl 50 mM Tricine pH 7.9 and 0.35 μCi [U-^14C]-L-valine or L-isoleucine. After incubation for 30 minutes at 30° C. the cells are extracted with ethyl acetate and the products formed are analyzed as above.
# CYP79D1 is reconstituted with sorghum NADPH-P450 oxidoreductase in the presence of high amounts of the lipid L-α-dioleyl phosphatidylcholine and 100 mM NaCl. […] To examine the effect of inhibitors on isolated CYP79D1, reconstitutions are performed in the presence of tetcyclasis, ABT and DPI using the same conditions as for cassava microsomes.
# CYP79B2 = molecular target: T1, CYP79B2; assay: CYP79B2 activity in E. coli spheroplasts reconstituted with NADPH:cytochrome P450 reductase
# Description: The activity of CYP79B2 is measured by reconstituting spheroplasts from E. coli expressing CYP79B2 with purified NADPH:cytochrome P450 reductase from Sorghum bicolor (L.) Moench. […] The reaction is incubated at 34° C. for 30 minutes, extracted two times with ethyl acetate and the ethyl acetate phase is analyzed by TLC using toluen:ethyl acetate 5:1 as eluent. Radiolabelled bands are visualized on a Storm 840 phosphorimager (Molecular Dynamics) and quantified with ImageQuant analysis software (Molecular Dynamics). Substrate specificity is investigated by substituting the ^14C-labelled tryptophan with ^14C-labelled tyrosine or phenylalanine. GC-MS is employed to verify the structure of the compound produced from tryptophan by recombinant CYP79B2. A 450 μl reaction mixture as described above containing 2 mM unlabelled tryptophan is incubated at 34° C. for 2 hours. The reaction mixture is extracted twice with 300 μl CHCl3 and lyophilized until dryness. GC-MS is performed with an HP5890 Series II gas chromatograph coupled to a Jeol JMS-AX505W mass spectrometer. Splitless injection on an SGE column (BPX5, 25 mm×0.25 mm, 0.25 μm film thickness) and a head pressure of 100 kPa are used.
# Single colonies are grown overnight at 37° C. in LB medium containing 100 μg/ml ampicillin. 1 ml of the overnight culture is used to inoculate 75 ml TB medium containing 100 μg/ml ampicillin, 75 μg/ml δ-aminolevulinic acid, 1 mM thiamine and 1 mM IPTG. The TB cultures are grown for 44 hours at 125 rpm and 28° C.
# CYP79A2 = molecular target: T2, CYP79A2; assay: CYP79A2 activity in E. coli spheroplasts reconstituted with NADPH:cytochrome P450 oxidoreductase
# CYP79F1 = CYP79F1 (Arabidopsis thaliana, UniProt Q949U1, M2A); conditions: E. coli C43(DE3) spheroplasts, GC-MS or TLC
# Description: In a typical enzyme assay, 5 μl spheroplasts and 4 μl NADPH:cytochrome P450 reductase (equivalent to 0.04 units defined as 1 μmol cytochrome c/min) are incubated with substrate in buffer containing 30 mM KPi, pH 7.5, 3 mM NADPH, 3 mM reduced glutathione, 0.042% Tween 80, 1 mg ml^−1 L-α-dilauroylphosphatidylcholine in a total volume of 30 μl. Reaction mixtures containing spheroplasts of E. coli C43(DE3) transformed with empty vector are used as controls in all assays. 3.3 μM L-[U-^14C]phenylalanine (453 mCi/mmol; Pharmacia), 3.7 μM L-[U-^14C]tyrosine (449 mCi/mmol; Pharmacia), 0.1 mM L-[methyl-^14C]methionine (56 mCi/mmol; Pharmacia), and 24 μM L-[side chain-3-^14C]tryptophan (56.5 mCi/mmol; NEN) are tested as potential substrates. After incubation at 28° C. for 1 hour, half of the reaction mixture is analyzed by TLC on Silica Gel 60 F254 sheets (Merck) using toluene/ethyl acetate 5:1 (v/v) as eluent. Radiolabelled bands are visualized and quantified using a STORM 840 phosphoimager (Pharmacia). For GC-MS analysis, 450 μl reaction mixture containing 3.3 mM L-methionine (Sigma), 3.3 mM DL-dihomomethionine or 3.3 mM DL-trihomomethionine, respectively, are incubated for 4 hours at 25° C. and extracted with a total volume of 600 μl CHCl3. The organic phase is collected, evaporated, and the residue is dissolved in 15 μl CHCl3 and analyzed by GC-MS. […] An SGE column (BPX5, 25 m×0.25 mm, 0.25 μm film thickness) is used (heat pressure 100 kPa, splitless injection). The oven temperature program is as follows: 80° C. for 3 minutes, 80° C. to 180° C. at 5° C. min^−1, 180° C. to 300° C. at 20° C. min^−1, and 300° C. for 10 min. The ion source is run in EI mode (70 eV) at 200° C. […] DL-dihomomethionine, DL-trihomomethionine, 5-methylthiopentanaldoxime and 6-methylthiohexanaldoxime are synthesized as described (Dawson et al, J. Biol. Chem. 268: 27154-27159, 1993) and authenticated by NMR spectroscopy.
# [1] = substrate: N[C@@H](Cc1ccccc1)C(=O)O; assay: purified protein, by the assay type; conditions: other: spheroplasts expressing 'native' CYP79A2, 2 hours at 26° C., pH 7.5
# Sequence of CYP79F1 (Q949U1 whole entry M2A): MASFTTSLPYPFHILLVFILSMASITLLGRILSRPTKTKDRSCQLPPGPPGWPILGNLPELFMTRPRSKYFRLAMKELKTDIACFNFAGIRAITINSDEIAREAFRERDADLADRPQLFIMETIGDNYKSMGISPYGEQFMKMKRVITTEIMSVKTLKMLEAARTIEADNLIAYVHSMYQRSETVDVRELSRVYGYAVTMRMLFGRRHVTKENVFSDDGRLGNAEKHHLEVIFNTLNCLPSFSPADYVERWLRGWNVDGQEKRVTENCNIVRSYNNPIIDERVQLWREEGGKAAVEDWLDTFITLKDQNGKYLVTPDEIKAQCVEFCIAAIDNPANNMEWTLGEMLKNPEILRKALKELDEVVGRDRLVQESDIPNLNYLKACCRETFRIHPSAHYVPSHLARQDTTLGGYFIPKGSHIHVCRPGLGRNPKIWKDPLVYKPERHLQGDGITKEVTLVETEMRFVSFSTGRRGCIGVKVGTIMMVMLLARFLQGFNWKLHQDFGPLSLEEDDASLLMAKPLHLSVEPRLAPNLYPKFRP
# T3 sequence (Q9M7B7 whole entry): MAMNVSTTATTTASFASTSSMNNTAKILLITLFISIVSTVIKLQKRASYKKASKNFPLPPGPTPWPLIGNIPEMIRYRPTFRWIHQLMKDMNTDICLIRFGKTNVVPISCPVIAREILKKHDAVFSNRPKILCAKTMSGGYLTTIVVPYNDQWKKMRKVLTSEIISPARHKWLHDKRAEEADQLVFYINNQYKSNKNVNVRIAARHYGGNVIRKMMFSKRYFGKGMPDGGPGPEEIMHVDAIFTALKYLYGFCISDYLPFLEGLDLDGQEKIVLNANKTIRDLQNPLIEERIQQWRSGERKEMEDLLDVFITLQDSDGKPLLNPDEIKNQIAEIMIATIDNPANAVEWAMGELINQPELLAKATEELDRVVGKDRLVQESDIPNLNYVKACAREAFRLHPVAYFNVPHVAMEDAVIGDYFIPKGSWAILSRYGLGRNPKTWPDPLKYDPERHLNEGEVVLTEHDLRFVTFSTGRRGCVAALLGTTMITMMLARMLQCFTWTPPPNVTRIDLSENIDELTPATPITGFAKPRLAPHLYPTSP
# Sequence of CYP79D1 (Q9M7B8 2-542): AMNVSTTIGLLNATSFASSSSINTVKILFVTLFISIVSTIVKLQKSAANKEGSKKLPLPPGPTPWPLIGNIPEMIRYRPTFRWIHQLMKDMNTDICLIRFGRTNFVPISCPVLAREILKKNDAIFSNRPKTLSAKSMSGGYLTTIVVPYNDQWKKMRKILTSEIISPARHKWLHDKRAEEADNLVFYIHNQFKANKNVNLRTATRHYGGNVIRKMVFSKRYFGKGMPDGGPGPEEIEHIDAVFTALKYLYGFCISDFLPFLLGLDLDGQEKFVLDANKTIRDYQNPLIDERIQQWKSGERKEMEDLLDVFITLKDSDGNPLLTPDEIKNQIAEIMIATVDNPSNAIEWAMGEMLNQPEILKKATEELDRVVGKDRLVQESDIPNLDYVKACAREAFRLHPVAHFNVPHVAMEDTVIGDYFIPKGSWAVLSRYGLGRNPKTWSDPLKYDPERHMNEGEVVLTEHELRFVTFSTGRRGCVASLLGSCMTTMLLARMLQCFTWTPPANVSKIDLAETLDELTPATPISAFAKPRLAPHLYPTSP
molecule,measurement,setting,value
CC[C@H](C)[C@H](N)C(=O)O [L-isoleucine],conversion to the corresponding oxime by CYP79D2,CYP79D2,found to convert
same,metabolism / cyanide production by cassava microsomes,cassava microsomes,cyanide is produced
same,conversion rate relative to L-valine,CYP79D1,approximately 60%
same,formation of the corresponding oxime / metabolism by CYP79D1,CYP79D1,corresponding oximes are formed
N[C@@H](CCC(=O)N[C@@H](CS)C(=O)NCC(=O)O)C(=O)O [reduced glutathione],increase of CYP79B2 activity,CYP79B2; addition of 1.5 mM,1.8 fold
same,effect on aldoxime production,CYP79A2; additive at final concentration 3 mM,"stimulates aldoxime production, but to a lesser extent"
CSCCCCC(N)C(=O)O (racemic) [DL-dihomomethionine],formation of the corresponding aldoxime by CYP79F1,CYP79F1,"two compounds, which are not present in the control reactions, are detected by GC-MS"
"Oc1ccc(Cl)cc1Cl [2,4-dichlorophenol, reference compound]",inhibition of CYP79B2 activity,"CYP79B2; 100 mM H2O2, 1 mM MnCl2 or 800 μM 2,4-dichlorophenol added to reconstitution assay",72%
CSCCCCCC(N)C(=O)O (racemic) [DL-trihomomethionine],formation of the corresponding aldoxime by CYP79F1,CYP79F1,two compounds with retention times and fragmentation pattern identical with those of the E/Z-isomers of the synthetic 6-methylthiopentanaldoxime are detected
NC(CCc1ccccc1)C(=O)O (racemic) [DL-homophenylalanine],production of the respective aldoxime by CYP79A2,CYP79A2,absence of detectable amounts of the homophenylalanine-derived aldoxime
CC(C)[C@H](N)C(=O)O [L-valine],conversion to the corresponding oxime by CYP79D2,CYP79D2,found to convert
same,metabolism / cyanide production by cassava microsomes,cassava microsomes,cyanide is produced
same,formation of the corresponding oxime / metabolism by CYP79D1,CYP79D1,corresponding oximes are formed
CC[C@@H](C)[C@@H](N)C(=O)O [D-isoleucine],metabolism / cyanide production by cassava microsomes,cassava microsomes,no metabolism is observed
N[C@@H](Cc1ccccc1)C(=O)O [L-phenylalanine],formation of the corresponding aldoxime by CYP79F1,CYP79F1,did not result in the formation of detectable amounts of the corresponding aldoximes
same,conversion to the corresponding oxime by CYP79D2,CYP79D2,"Neither L-Leucine, L-phenylalanine nor L-tyrosine are metabolized"
same,oxime production by CYP79B2,"CYP79B2; radiolabelled amino acid, TLC",No oxime producing activity is detected
same,production of the respective aldoxime by CYP79A2,CYP79A2; TLC or GC-MS detection,produce two radiolabelled compounds which comigrate with the (E)- and (Z)-isomers of phenylacetaldoxime
CC(C)[C@@H](N)C(=O)O [D-valine],metabolism / cyanide production by cassava microsomes,cassava microsomes,no metabolism is observed
same,binding to the active site of CYP79D1 (competition with 14C-L-valine),CYP79D1,does not bind with high affinity
same,formation of the corresponding oxime / metabolism by CYP79D1,CYP79D1,neither the cassava microsomes nor isolated CYP79D1 metabolize
CCCCCCCC/C=C\CCCCCCCC(=O)OCCOCC(OCCO)C1OCC(OCCO)C1OCCO (stereo not drawn) [Tween 80],increase in aldoxime production,CYP79A2; additive at final concentration 0.083% (v/v),1.5 fold
"c1ccc2c(c1)[I+]c1ccccc1-2 [DPI, reference compound]",inhibition of CYP79D1 val-oxime formation,CYP79D1,completely inhibits
CSCC[C@H](N)C(=O)O [L-methionine],formation of the corresponding aldoxime by CYP79F1,CYP79F1,did not result in the formation of detectable amounts of the corresponding aldoximes
same,production of the respective aldoxime by CYP79A2,CYP79A2,does not result in production of detectable amounts of the respective aldoximes
"Clc1ccc(N2N=NC3C4CC(C5N=NC45)C32)cc1 (stereo not drawn) [tetcyclasis, reference compound]",inhibition of CYP79D1 val-oxime formation,CYP79D1,inhibited
B1,Km,[1],6.7 μmol I^−1
